Test results taken from ChEMBL document CHEMBL4831548, “Sesquiterpene Lactones from Sigesbeckia glabrescens Possessing Potent Anti-inflammatory Activity by Directly Binding to IKKα/β” (J Nat Prod, 2021).
Active and inactive are the calls of the source. No cut-off for these calls is given here.

Columns and labels:
RAW264.7 [1] = assay: Inhibition of LPS-induced NO production in mouse RAW264.7 cells preincubated for 2 hrs followed by LPS stimulation for 24 hrs by Griess reagent based assay; format: functional, cell-based
RAW264.7 [2] = assay: Cytotoxicity against mouse RAW264.7 cells assessed as effect on cell viability up to 20 uM measured after 24 hrs by CCK8 assay; format: cell-based; settings: raw264.7, 24 h
[3] = target: T1, Inhibitor of nuclear factor kappa-B kinase subunit alpha/beta (Mus musculus) (UniProt Q60680+O88351); assay: Inhibition of IKKalpha/beta in LPS-stimulated mouse RAW264.7 cells assessed as decrease in IkappaB degradation at 3 uM preincubated for 2 hrs followed by LPS stimulation for 10 mins by immunoblotting assay; settings: time 130.0 min
[4] = Covalent binding affinity to dithiothreitol assessed as compound-DTT adduct formation at 50 uM incubated for 30 mins by UPLC-MS analysis
[5] = target: c-Jun N-terminal kinase (Mus musculus) (UniProt Q91Y86+Q9WTU6+Q61831); assay: Inhibition of JNK phosphorylation in LPS-induced mouse RAW264.7 cells at 0.75 to 3 uM preincubated for 2 hrs followed by LPS stimulation and measured after 30 mins by immunoblotting assay; settings: dose 0.75-3 µM, time 150.0 min
RAW264.7 [6] = assay: Anti-inflammatory activity against LPS-stimulated mouse RAW264.7 cells assessed as decrease in IL-6 production at 0.75 to 3 uM preincubated for 2 hrs followed by LPS stimulation and measured after 24 hrs by ELISA assay; format: functional, cell-based; settings: dose 0.75-3 µM, time 26.0 hrs
RAW264.7 [7] = assay: Inhibition of LPS-induced NO production in mouse RAW264.7 cells at 3 uM preincubated with DTT for 30 mins and later incubated with cells for 2 hrs followed by LPS stimulation for 24 hrs by Griess-reagent based assay; format: functional, cell-based; settings: time 1590.0 min
[8] = target: T1, Inhibitor of nuclear factor kappa-B kinase subunit alpha/beta (Mus musculus); assay: Inhibition of IKKalpha/beta in LPS-stimulated mouse RAW264.7 cells assessed as inhibition of IkappaB alpha degradation at 3 uM preincubated with DTT for 30 mins and later incubated with cells for 2 hrs followed by LPS stimulation for 10 mins by immunoblot anlaysis; settings: time 160.0 min
[9] = target: T1, Inhibitor of nuclear factor kappa-B kinase subunit alpha/beta (Mus musculus); assay: Inhibition of IKKalpha/beta in LPS-stimulated mouse RAW264.7 cells assessed as inhibition of IkappaB alpha phosphorylation preincubated for 2 hrs followed by LPS stimulation for 5 mins by immunoblot anlaysis; settings: dose 0.75-3 µM, time 125.0 min
RAW264.7 [10] = assay: Inhibition of LPS-induced COX2 protein expression in mouse RAW264.7 cells at 0.75 to 3 uM preincubated for 2 hrs followed by LPS stimulation for 24 hrs by Western blot analysis; format: functional, cell-based; settings: dose 0.75-3 µM, time 26.0 hrs
[11] = target: MAP kinase p38 (Mus musculus) (UniProt P47811+O08911+Q9WUI1+Q9Z1B7); assay: Inhibition of p38 MAPK phosphorylation in LPS-induced mouse RAW264.7 cells at 0.75 to 3 uM preincubated for 2 hrs followed by LPS stimulation and measured after 30 mins by immunoblotting assay; settings: dose 0.75-3 µM, time 150.0 min
[12] = target: Inhibitor of NF-kappa-B kinase alpha/beta (Homo sapiens) (UniProt O14920+O15111); assay: Inhibition of IKKalpha/beta in human HEK293T cells assessed as reduction in thermal stability at 50 uM incubated for 30 mins followed by heating at temperature between 58 to 60 degC for 3 mins by CETSA analysis; format: cell-based; settings: time 33.0 min
RAW264.7 [13] = assay: Inhibition of LPS-induced iNOS protein expression in mouse RAW264.7 cells at 0.75 to 3 uM preincubated for 2 hrs followed by LPS stimulation for 24 hrs by Western blot analysis; format: functional, cell-based; settings: dose 0.75-3 µM, time 26.0 hrs
[14] = target: T1, Inhibitor of nuclear factor kappa-B kinase subunit alpha/beta (Mus musculus); assay: Inhibition of IKKalpha/beta in LPS-stimulated mouse RAW264.7 cells assessed as inhibition of IkappaB alpha phosphorylation at 3 uM preincubated with DTT for 30 mins and later incubated with cells for 2 hrs followed by LPS stimulation for 5 mins by immunoblot anlaysis; settings: time 155.0 min
RAW264.7 [15] = assay: Inhibition of ERK phosphorylation in LPS-induced mouse RAW264.7 cells at 0.75 to 3 uM preincubated for 2 hrs followed by LPS stimulation and measured after 30 mins by immunoblotting assay; settings: dose 0.75-3 µM, time 150.0 min
[16] = target: T1, Inhibitor of nuclear factor kappa-B kinase subunit alpha/beta (Mus musculus); assay: Inhibition of IKKalpha/beta in LPS-stimulated mouse RAW264.7 cells assessed as inhibition of NFkB p65 nuclear translocation at 3 uM preincubated for 2 hrs followed by LPS stimulation for 30 mins by immunoblotting assay; settings: time 150.0 min
[17] = target: T1, Inhibitor of nuclear factor kappa-B kinase subunit alpha/beta (Mus musculus); assay: Inhibition of IKKalpha/beta phosphorylation in LPS-induced mouse RAW264.7 cells incubated for 2 hrs followed by LPS stimulation and measured after 5 mins by immunoblotting assay; settings: dose 0.75-3 µM, time 125.0 min
RAW264.7 [18] = assay: Anti-inflammatory activity against LPS-stimulated mouse RAW264.7 cells assessed as decrease in IL-1 beta production at 0.75 to 3 uM preincubated for 2 hrs followed by LPS stimulation and measured after 24 hrs by ELISA assay; format: functional, cell-based; settings: dose 0.75-3 µM, time 26.0 hrs
RAW264.7 [19] = assay: Anti-inflammatory activity against LPS-stimulated mouse RAW264.7 cells assessed as decrease in TNF-alpha production at 0.75 to 3 uM preincubated for 2 hrs followed by LPS stimulation and measured after 24 hrs by ELISA assay; format: functional, cell-based; settings: dose 0.75-3 µM, time 26.0 hrs
RAW264.7 [20] = assay: Inhibition of LPS-induced PGE2 production in mouse RAW264.7 cells preincubated for 2 hrs followed by LPS stimulation and measured after 24 hrs by ELISA assay; format: functional, cell-based; settings: dose 0.75-3 µM, time 26.0 hrs
RAW264.7 [21] = assay: Anti-inflammatory activity against LPS-stimulated mouse RAW264.7 cells assessed as decrease in IL-6 production at 3 uM preincubated for 2 hrs followed by LPS stimulation and measured after 24 hrs by ELISA assay; format: functional, cell-based; settings: time 26.0 hrs
RAW264.7 [22] = assay: Anti-inflammatory activity against LPS-stimulated mouse RAW264.7 cells assessed as decrease in IL-1 beta production at 3 uM preincubated for 2 hrs followed by LPS stimulation and measured after 24 hrs by ELISA assay; format: functional, cell-based; settings: time 26.0 hrs
RAW264.7 [23] = assay: Inhibition of LPS-induced PGE2 production in mouse RAW264.7 cells at 3 uM preincubated for 2 hrs followed by LPS stimulation and measured after 24 hrs by ELISA assay; format: functional, cell-based; settings: time 26.0 hrs
RAW264.7 [24] = assay: Anti-inflammatory activity against LPS-stimulated mouse RAW264.7 cells assessed as decrease in TNF-alpha production at 3 uM preincubated for 2 hrs followed by LPS stimulation and measured after 24 hrs by ELISA assay; format: functional, cell-based; settings: time 26.0 hrs
RAW264.7 [25] = assay: Inhibition of LPS-induced NO production in mouse RAW264.7 cells at 3 uM incubated for 2 hrs followed by LPS stimulation and measured after 24 hrs by Griess reagent based assay; format: functional, cell-based; settings: time 26.0 hrs

Sequence of c-Jun N-terminal kinase (Mus musculus) (Q61831 whole entry, looked up): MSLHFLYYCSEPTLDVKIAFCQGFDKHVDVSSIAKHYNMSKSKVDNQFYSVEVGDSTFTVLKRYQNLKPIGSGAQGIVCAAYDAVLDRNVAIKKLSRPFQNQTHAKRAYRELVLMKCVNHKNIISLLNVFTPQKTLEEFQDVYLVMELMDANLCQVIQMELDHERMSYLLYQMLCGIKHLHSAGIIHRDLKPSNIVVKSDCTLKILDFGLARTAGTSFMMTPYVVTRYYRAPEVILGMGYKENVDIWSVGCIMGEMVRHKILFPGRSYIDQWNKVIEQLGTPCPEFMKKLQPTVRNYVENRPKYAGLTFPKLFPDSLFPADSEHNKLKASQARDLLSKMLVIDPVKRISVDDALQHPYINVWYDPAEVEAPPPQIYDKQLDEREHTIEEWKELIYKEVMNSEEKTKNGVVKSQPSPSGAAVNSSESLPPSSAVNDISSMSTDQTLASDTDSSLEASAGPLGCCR
Sequence of c-Jun N-terminal kinase (Mus musculus) (Q91Y86 whole entry, looked up): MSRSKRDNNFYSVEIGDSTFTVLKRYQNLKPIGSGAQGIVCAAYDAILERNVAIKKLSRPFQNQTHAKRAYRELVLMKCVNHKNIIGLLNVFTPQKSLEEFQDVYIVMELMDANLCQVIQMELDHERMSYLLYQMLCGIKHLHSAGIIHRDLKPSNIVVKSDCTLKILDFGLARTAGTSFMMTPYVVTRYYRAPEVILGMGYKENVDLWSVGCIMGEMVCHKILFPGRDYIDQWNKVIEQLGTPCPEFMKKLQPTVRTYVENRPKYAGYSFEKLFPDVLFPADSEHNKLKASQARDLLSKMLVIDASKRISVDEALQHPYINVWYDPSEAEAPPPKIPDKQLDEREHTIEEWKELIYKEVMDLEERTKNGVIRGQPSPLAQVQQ
Sequence of c-Jun N-terminal kinase (Mus musculus) (Q9WTU6 whole entry, looked up): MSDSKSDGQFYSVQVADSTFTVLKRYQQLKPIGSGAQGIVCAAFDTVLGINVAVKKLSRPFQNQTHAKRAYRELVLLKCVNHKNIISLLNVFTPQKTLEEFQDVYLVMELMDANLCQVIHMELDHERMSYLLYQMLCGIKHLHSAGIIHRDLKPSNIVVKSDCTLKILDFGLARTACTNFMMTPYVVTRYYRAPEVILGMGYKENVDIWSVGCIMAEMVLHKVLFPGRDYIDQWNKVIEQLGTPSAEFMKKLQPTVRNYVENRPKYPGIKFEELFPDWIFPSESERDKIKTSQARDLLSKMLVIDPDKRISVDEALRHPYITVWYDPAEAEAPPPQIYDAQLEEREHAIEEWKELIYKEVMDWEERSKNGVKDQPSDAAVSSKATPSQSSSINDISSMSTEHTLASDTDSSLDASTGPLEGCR

| Compound | IC50 (RAW264.7 [1]) [µM] | Activity (RAW264.7 [2]) | further results |
| --- | --- | --- | --- |
| C=C1C(=O)O[C@@H]2C[C@H]3CC/C=C(/C[C@@H](OC(=O)/C(C)=C/C)[C@@H]12)[C@H](O)OC3 | > 20 | Non-Toxic |  |
| C=C1C(=O)O[C@@H]2C[C@H](CO)CC/C=C(\CO)C[C@@H](O)[C@@H]12 | > 20 | Non-Toxic |  |
| C=C1C(=O)O[C@@H]2C[C@H](CO)CC/C=C(\CO)C[C@@H](OC(=O)/C(C)=C/C)[C@@H]12 | 6.9 | Non-Toxic |  |
| C=C1C(=O)O[C@@H]2/C=C(\CO)CC/C=C(\C=O)[C@H](OC)[C@@H](OC(=O)C(C)C)[C@@H]12 | > 20 | Non-Toxic |  |
| C=C1C(=O)O[C@@H]2/C=C(\CO)CC/C=C(\C=O)[C@H](OC)[C@@H](OC(=O)/C(C)=C\C)[C@@H]12 | 7.9 | Non-Toxic |  |
| C=C1C(=O)O[C@@H]2/C=C(\CO)CC/C=C(\CO)[C@H](OC(C)=O)[C@@H](OC(=O)/C(C)=C\C)[C@@H]12 | 9.3 | Non-Toxic |  |
| C=C(C)C(=O)O[C@@H]1C/C(CO)=C/CC[C@@H](CO)C[C@H]2OC(=O)C(=C)[C@H]12 | 2.7 | Non-Toxic |  |
| C=C1C(=O)O[C@@H]2C[C@H](CO)CC/C=C(\CO)C[C@@H](OC(=O)/C(C)=C\C)[C@@H]12 | 2.3 | Non-Toxic |  |
| C=C1C(=O)O[C@@H]2/C=C(\CO)CC/C=C(\C=O)[C@H](OC(C)=O)[C@@H](OC(=O)/C(C)=C\C)[C@@H]12 | 16.5 | Non-Toxic |  |
| C=C1C(=O)O[C@@H]2C[C@H](COC(=O)/C(C)=C\C)CC/C=C(\CO)C[C@@H](O)[C@@H]12 | 1.4 | Non-Toxic | inhibition [3]: Active; Activity [4]: Active; inhibition [5]: inactive; Activity (RAW264.7 [6]): Active; inhibition (RAW264.7 [7]): inactive; inhibition [8]: inactive; inhibition [9]: Dose-Dependent Effect; inhibition (RAW264.7 [10]): Active; inhibition [11]: inactive; inhibition [12]: Active; inhibition (RAW264.7 [13]): Active; inhibition (RAW264.7 [1]; time 26.0 hrs): Dose-Dependent Effect; inhibition [14]: inactive; inhibition (RAW264.7 [15]): inactive; inhibition [16]: Active; inhibition [17]: Dose-Dependent Effect; Activity (RAW264.7 [18]): Active; Activity (RAW264.7 [19]): Active; inhibition (RAW264.7 [20]): Dose-Dependent Effect |
| C=C1C(=O)O[C@@H]2/C=C(\CO)CCC=C(CO)[C@H](OC(C)=O)[C@@H](OC(=O)C(C)C)[C@@H]12 | 10.2 | Non-Toxic |  |
| C=C1C(=O)O[C@@H]2/C=C(\CO)CC/C=C(\C=O)[C@H](OC(C)=O)[C@@H](OC(=O)/C(C)=C/C)[C@@H]12 | > 20 | Non-Toxic |  |
| C=C1C(=O)O[C@@H]2/C=C(\C)CC/C=C(\CO)C[C@@H](O)[C@@H]12 | > 20 | Non-Toxic |  |
| C=C1C(=O)O[C@@H]2/C=C3/CC/C=C(\[C@H](O)OC3)[C@H](OC)[C@@H](OC(=O)/C(C)=C\C)[C@@H]12 | > 20 | Non-Toxic |  |
| C=C1C(=O)O[C@H]2[C@H]1[C@H](OC(=O)/C(C)=C\C)[C@@H](OC)C(=O)[C@@H]1CC[C@@](O)(CO)[C@H]21 | > 20 | Non-Toxic |  |
| C=C1C(=O)O[C@@H]2/C=C(\CO)CC/C=C(\CO)[C@H](OC(C)=O)[C@@H](OC(=O)/C(C)=C/C)[C@@H]12 | 10 | Non-Toxic |  |
| C=C(C)C(=O)O[C@H]1[C@H]2C(=C)C(=O)O[C@@H]2/C=C(\CO)CC/C=C(\CO)[C@@H]1OC(C)=O | 9.9 | Non-Toxic |  |
| C=C1C(=O)O[C@@H]2C[C@H](CO)CC/C=C(\CO)C[C@@H](OC(=O)C=C(C)C)[C@@H]12 | 5.6 | Non-Toxic |  |
| COc1cc(/C=C/C(=O)CC(=O)/C=C/c2ccc(O)c(OC)c2)ccc1O [CURCUMIN] | 3.5 |  | Activity (RAW264.7 [21]): Active; Activity (RAW264.7 [22]): Active; inhibition (RAW264.7 [23]): Active; Activity (RAW264.7 [24]): Active; inhibition (RAW264.7 [25]): Active |
| C=C1C(=O)O[C@@H]2/C=C3/CC/C=C(\[C@H](O)OC3)[C@H](O)[C@@H](OC(=O)/C(C)=C/C)[C@@H]12 | > 20 | Non-Toxic |  |
| C=C1C(=O)O[C@H]2[C@H]1[C@H](OC(=O)/C(C)=C/C)[C@@H](OC)C(=O)[C@@H]1CC[C@@](O)(CO)[C@H]21 | > 20 | Non-Toxic |  |
| C=C1C(=O)O[C@@H]2C[C@H](CO)CCC=C(CO)C[C@@H](OC(=O)C(C)C)[C@@H]12 | 3.4 | Non-Toxic |  |
| C=C1C(=O)O[C@@H]2C[C@H](CO)CC/C=C(\COC(=O)C(C)C)C[C@@H](O)[C@@H]12 | > 20 | Non-Toxic |  |
| C=C1C(=O)O[C@@H]2/C=C(\CO)CC/C=C(\C=O)[C@H](O)[C@@H](OC(=O)/C(C)=C\C)[C@@H]12 | 9.1 | Non-Toxic |  |
| C=C(C)C(=O)O[C@@H]1C=C(C=O)[C@@H]2CC[C@@](O)(CO)[C@@H]2[C@H]2OC(=O)C(=C)[C@@H]21 | 15.4 | Non-Toxic |  |
